Source: PubChem BioAssay (NCI)
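Step 1: Grow cells in 96-well plates. Step 2: Expose to compound for 48 hours at 5 concentrations. Step 3: Interpolate endpoints linearly; if unreached, use highest concentration. GI50 is the concentration that inhibits growth by half. TGI is the concentration that stops growth completely.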

How the values were obtained:
Test in all cases: NCI-60 cell line screen, 48 h
U251 CNS = tested on: U251 CNS
OVCAR-4 ovarian = tested on: OVCAR-4 ovarian
SN12C renal = tested on: SN12C renal
HT29 colon = tested on: HT29 colon
RPMI-8226 leukemia = tested on: RPMI-8226 leukemia
RXF 393 renal = tested on: RXF 393 renal
MDA-MB-435 = tested on: MDA-MB-435
HS 578T breast = tested on: HS 578T breast
NCI/ADR-RES ovarian = tested on: NCI/ADR-RES ovarian
MCF7 breast = tested on: MCF7 breast

SMILES	TGI (U251 CNS) [µM]	TGI (OVCAR-4 ovarian) [µM]	TGI (SN12C renal) [µM]	TGI (HT29 colon) [µM]	TGI (RPMI-8226 leukemia) [µM]	TGI (RXF 393 renal) [µM]	GI50 (MDA-MB-435) [µM]	TGI (MDA-MB-435) [µM]	GI50 (U251 CNS) [µM]	GI50 (OVCAR-4 ovarian) [µM]	GI50 (SN12C renal) [µM]	GI50 (HS 578T breast) [µM]	TGI (HS 578T breast) [µM]	GI50 (HT29 colon) [µM]	GI50 (RPMI-8226 leukemia) [µM]	GI50 (RXF 393 renal) [µM]	GI50 (NCI/ADR-RES ovarian) [µM]	TGI (NCI/ADR-RES ovarian) [µM]	GI50 (MCF7 breast) [µM]	TGI (MCF7 breast) [µM]
S=C=NCCc1ccccc1	2.22	6.33	0.987	0.554	2.04	1.42														
COC1OC(C)C2OC(C)(C)OC2C1OC(C)=O (stereo not drawn)	> 100	> 100	> 100	> 100	> 100	> 100														
CC1=C(C)C2(O)C(=C(C)C1=O)/C(=C(/O)c1ccccc1)c1nc3ccccc3n12 (stereo not drawn)	58.2	27.1	34.6	> 100	33.2	34.5	17.3	35.1	22.1	13.5	19.3	29.3	94.6	32.5	13.2	15.3				
O=c1cc(-c2ccccc2)oc2cc(OC/C(=N/O)c3ccc(F)cc3)ccc12	> 50	> 50	> 50	> 50	> 50	40.2	13.8	> 50	22	> 50	15.5			29.6	15.9	14	21	> 50	11.9	31
Cn1c(=S)c2[nH]c(SCCN3C(=O)c4ccccc4C3=O)nc2n(C)c1=O	> 100	> 100	> 100	> 100	> 100	> 100		> 100					> 100					> 100		> 100
NC(=S)N=Nc1c(O)c2ccccc2c2ccccc12	11.4	37	3.47	> 100	> 100	44.7	1.85	3.45	3.07	13	1.73	2.17	7.96	19.3	9.73	18.7	4.3	27	1.88	4.54
Clc1ccccc1C(Nc1ncccn1)Nc1ncccn1	> 100	> 100	> 100	> 100	> 100	> 100		> 100					> 100					> 100		> 100
Nc1nc(=O)n([C@@H]2CS[C@H](CO)O2)cc1F	> 100	> 100	> 100	> 100	> 100	> 100	> 100	> 100	> 100	> 100	> 100	> 100	> 100	> 100	> 100	> 100	> 100	> 100	> 100	> 100
CCOC(=O)/C=C/C(=O)[C@H](CC(C)C)NC(=O)[C@H](Cc1ccccc1)NC(=O)OCc1ccccc1	27.2	26.6		38.6	5.97	3.64	6.58	20.1	13.2	12.9		10.9	67.9	5.44	2.13	2.03	12.3	93.1	1.73	4.8
c1ccc(P(=C2c3ccccc3-c3ccccc32)(c2ccccc2)c2ccccc2)cc1	9.18	> 100	10.9	10.4		93.8														
C#COc1cccc(Nc2ncnc3cc(NC(=O)[C@H](C)Cl)ccc23)c1	> 62.5		> 62.5	> 62.5	> 62.5	39.3	1.4	4.3	2.84		3.69	2.51	> 62.5	2.21	3.52	3.34	2.4	> 62.5	6.08	> 62.5
CN(C)c1ccc(C(c2ccc(Cl)cc2)c2ccc(N(C)C)cc2)cc1	> 100		> 100	> 100	> 100	> 100		> 100					> 100					> 100		> 100
COc1ccccc1NS(=O)(=O)c1ccc2oc(SC(C)C)nc2c1	> 100	77.6	34.5	64.1	24.4		18.7	94	33.1	8.67	15.5	33.6	> 100	22.2	2.4		14.8	84.1	15.5	> 100
O=C(C/C(CCC(=O)N(Cc1ccccc1)Cc1ccccc1)=N/Nc1ccc([N+](=O)[O-])cc1[N+](=O)[O-])c1ccccc1	> 100	> 100		> 100	> 100															
CC[N+](C)(CC)CC(C)(C)C(=O)/C=C/c1ccc(/C=C/C(=O)C(C)(C)C[N+](C)(CC)CC)cc1	> 100	> 100	> 100	> 100	> 100	> 100														
C=C1C(=O)O[C@H]2[C@H]1CC/C(COC(=O)NCCc1c[nH]c3ccc(Cl)cc13)=C\CC[C@@]1(C)O[C@@H]21	3.31	3.05	3.17	3.24	4.21	2.94	1.52	3	1.8	1.5	1.64	3.21	9.76	1.46	1.2	1.54	2.74	9.77		
Cc1nc2sccn2c1C(=O)NC(=O)Nc1ccc(Cl)cc1	> 100	> 100	> 100	> 100	> 100	> 100														
Cc1cc(Cl)ccc1Nc1nc(C(F)(F)F)ccc1C(=O)N/N=C/c1ccccc1Cl	4.86	> 100	> 54.3	> 41.9		4.41	2.29	20.9	0.526	0.422	1.45	1.26	5.67	2.01		1.48	1.19	7.16	0.896	10.6
O=C1C2C3C=C4c5ccccc5N(c5ccccc5)C4(C2C(=O)N1c1ccc(Br)cc1)[C@H]1C(=O)N(c2ccc(Br)cc2)C(=O)[C@@H]31 (stereo partly drawn)	> 100	> 100	> 100	> 100	> 100	> 100														
CC12CCC3c4cc(Br)c(O)c(Br)c4CCC3C1CCC2O (stereo not drawn)	29.6		42	29.1		40.5		18.7					49.4					62.5		74.6

SMILES	TGI (U251 CNS) [µM]	TGI (OVCAR-4 ovarian) [µM]	TGI (SN12C renal) [µM]	TGI (HT29 colon) [µM]	TGI (RPMI-8226 leukemia) [µM]	TGI (RXF 393 renal) [µM]	GI50 (MDA-MB-435) [µM]	TGI (MDA-MB-435) [µM]	GI50 (U251 CNS) [µM]	GI50 (OVCAR-4 ovarian) [µM]	GI50 (SN12C renal) [µM]	GI50 (HS 578T breast) [µM]	TGI (HS 578T breast) [µM]	GI50 (HT29 colon) [µM]	GI50 (RPMI-8226 leukemia) [µM]	GI50 (RXF 393 renal) [µM]	GI50 (NCI/ADR-RES ovarian) [µM]	TGI (NCI/ADR-RES ovarian) [µM]	GI50 (MCF7 breast) [µM]	TGI (MCF7 breast) [µM]
CCCCCCCCCCCCCC(=O)CSCCNC(=O)CCNC(=O)[C@@H](O)C(C)(C)COP(=O)(O)OP(=O)(O)OCC1OC(n2cnc3c(N)ncnc32)C(O)C1OP(=O)(O)O (stereo partly drawn)	39.2	22.3	34.5	45.3		42.3														
Cn1c(=O)c2[nH]cnc2n(CC(N)=O)c1=O	> 100		> 100	> 100	> 100															
CN(C)CCNC(=O)c1cccc2ccc(-c3ccc(-c4ccccc4)cc3)nc12	4.65	6.74	20.2	3.72		6.15														
COC(=O)/C=c1\s/c(=C\C(=O)OC)c2ccccc12	> 100	> 100	> 100	> 100	> 100	> 100														
C[C@]12CCNC(=O)C=C1CC[C@@H]1C2CC[C@@]2(C)C1CC[C@@H]2OC(=O)COc1ccc(N(CCCl)CCCl)cc1 (stereo partly drawn)	11.1	20.5	21.8	27.5	47.6	18		74.5					98.1							14.8
Cc1ccc(C)c(NC(=O)CC2SC(=Nc3ccccc3Cl)NC2=O)c1 (stereo not drawn)	> 100	> 100	> 100	> 100		> 100														
CCN(CC)CCn1[nH]c2c3ccc(=O)cc3sc3c(NCCN)ccc1c32	5.18	2.28	8.15	6.2	1.97	3.43														
CCCCCCCC(=O)OCC(=O)[C@]1(O)Cc2c(O)c3c(c(O)c2[C@@H](OC2CC(N)C(O)C(C)O2)C1)C(=O)c1c(OC)cccc1C3=O (stereo partly drawn)							0.325	1.88									1.67	4.41		0.417
O=C1c2ccccc2C(=O)c2sc(Nc3ccccc3Cl)nc21	19.5	22.8	21.1	45.4	10.6	30							80.4							40.6
O=C(/C=C/C12c3ccccc3C(c3ccccc31)C1C(=O)NC(=O)C12)c1ccc(Cl)cc1 (stereo not drawn)	2.99	2.76	3.26		4.5	2.56	1.68	3.5	1.52	1.42	1.56	1.94	7.22		1.66	1.2	1.77	4.93	1.34	4.05
C=C(C)C(=O)O[C@@H]1C/C(C)=C\[C@H](OC(C)=O)C[C@](C)(O)/C=C2/OC(=O)C(COC(C)=O)=C21			2.85	0.687	1.73			2.8					47							> 36.5
C=CCOC(=O)C1CCC(=O)N1C(=O)C(Cl)Cl (stereo not drawn)	> 100	> 100	> 100	> 100	> 100															
COc1ccc(Cn2cc3c(c2-c2ccccc2)CCc2cnoc2-3)cc1N	> 100	> 100	> 100	15.1		> 100			0.287	0.898	0.694			1.78	0.31	0.32	0.0828		0.05	> 100
CCN1C[C@]2(COC)[C@H](O)C[C@H](OC)[C@]34C1[C@H]([C@H](OC)[C@H]23)[C@]1(OC(C)=O)[C@H]2[C@@H](OC(=O)c3ccccc3)[C@](O)(C[C@H]24)[C@@H](OC)[C@@H]1O	> 100	> 100	> 100	> 100				> 100					> 100					> 100		> 100
N#Cc1ccc2cc3c(cc2c1)OCO3	> 100	> 100	> 100	> 100	> 100	> 100														
COC1C2c3cc4c(cc3CC(C#N)(c3ccccc32)N1C(=O)c1ccccc1)OCO4 (stereo not drawn)	> 100		> 100	> 100	> 100	> 100														
O=C(CCc1nnc2s/c(=C\c3ccccc3Cl)c(=O)n12)Nc1cc(Cl)ccc1Cl	> 100	> 100	> 100	> 100	> 100	> 100														
O=C(CC(=O)c1cccc(Cl)c1)c1cccc(Cl)c1	> 100	> 100	> 100		> 100	> 100	3.18	> 100	1	1.9	2.38	3.88	> 100		1.45	3.69	2.06	6.35	1.72	> 100
CN(/N=C/c1cccc2cccnc12)c1c([N+](=O)[O-])cc([N+](=O)[O-])cc1[N+](=O)[O-]	> 100	> 100	> 100	> 100	> 100	> 100														
Cc1cn(-c2ccc(S(C)(=O)=O)cc2)c(-c2ccc(Cl)cc2)n1	> 100	> 100	> 100	> 100	> 100		> 100	> 100	> 100	> 100	> 100	> 100	> 100	> 100	> 100		> 100	> 100	> 100	> 100
